Measurements taken from US20230212180A1, “SUBSTITUTED PYRAZINE COMPOUND, PHARMACEUTICAL COMPOSITION COMPRISING SAME, AND USE THEREOF” (Sichuan Kelun-Biotech Biopharmaceutical Co., Ltd., priority 2020, published 2023).

Key:
NCI-H358 cell xenograft = test: Tumor inhibition in NCI-H358 xenograft model; assay type: in vivo, Balb/c-nu mice; details: for TGI (%) (calculated by the tumor volume): oral, 21 days
From the text: Test Example 10: Experiment on Tumor Inhibition in NCI-H358 Xenograft Model
A subcutaneous xenograft mouse model was established by subcutaneously inoculating human non-small cell lung cancer cells NCI-H358 into the right scapulae of Balb/c-nu mice. After tumor formation, the mice were orally administered to evaluate the in vivo drug efficacy of different test compounds.
The NCI-H358 cells were subjected to monolayer in vitro culture. The culture conditions were as follows: 10% fetal bovine serum was added into the RPMI 1640 medium, and the cells were cultured in an incubator at 37° C. in air containing 5% CO2. The cells were digested twice/trice a week with pancreatin-EDTA for passaging. When the cells were in exponential growth phase, the cells were harvested, counted, and inoculated.
Before inoculated with tumor cells, the experimental mice were identified sequentially with numbered ear spikes specific to mice.
Every of the mice were subcutaneously inoculated with 1×10^6 NCI-H358 cells (suspended in 0.1 ml PBS+Matrigel Matrix) into the right scapulae. It was predicted that the mean tumor volume on Day 7 would be ˜200 mm^3. Based on the measurement results on Day 7, thirty mice with regular shapes and uniform volumes of tumor were screened, randomly divided into 5 groups and administered according to the experimental scheme (the dosing regimen was as shown in Table 10 (lasting for 21 days)). The vehicle was 5% DMSO+5% Solutol+90% H2O.
Mice were weighed and tumor volumes were measured trice a week, and the data were recorded. The tumor volume (V) was calculated by the following equation: V=½×a×b^2, wherein a and b indicated the length and width, respectively.
The anti-tumor efficacy was evaluated by tumor growth inhibition TGI (%). […] When the tumor regressed, TGI (%) (tumor volume)=100%−(TVt−TV0)/TV0×100%.
If the tumor was smaller than its initial volume, i.e., Vt<V0, it was defined as partial regression (PR) of the tumor. If the tumor disappeared completely, it was defined as complete regression (CR) of the tumor.

AAK1 = molecular target: T1, AAK1 (Homo sapiens, UniProt Q2M2I8); test: Kinase selectivity test (ThermoFisher); assay type: biochemical; design: concentration or dose not given beside the values
T1 construct: purchased ThermoFisher USA (contract testing)
T1 sequence (Q2M2I8 whole entry): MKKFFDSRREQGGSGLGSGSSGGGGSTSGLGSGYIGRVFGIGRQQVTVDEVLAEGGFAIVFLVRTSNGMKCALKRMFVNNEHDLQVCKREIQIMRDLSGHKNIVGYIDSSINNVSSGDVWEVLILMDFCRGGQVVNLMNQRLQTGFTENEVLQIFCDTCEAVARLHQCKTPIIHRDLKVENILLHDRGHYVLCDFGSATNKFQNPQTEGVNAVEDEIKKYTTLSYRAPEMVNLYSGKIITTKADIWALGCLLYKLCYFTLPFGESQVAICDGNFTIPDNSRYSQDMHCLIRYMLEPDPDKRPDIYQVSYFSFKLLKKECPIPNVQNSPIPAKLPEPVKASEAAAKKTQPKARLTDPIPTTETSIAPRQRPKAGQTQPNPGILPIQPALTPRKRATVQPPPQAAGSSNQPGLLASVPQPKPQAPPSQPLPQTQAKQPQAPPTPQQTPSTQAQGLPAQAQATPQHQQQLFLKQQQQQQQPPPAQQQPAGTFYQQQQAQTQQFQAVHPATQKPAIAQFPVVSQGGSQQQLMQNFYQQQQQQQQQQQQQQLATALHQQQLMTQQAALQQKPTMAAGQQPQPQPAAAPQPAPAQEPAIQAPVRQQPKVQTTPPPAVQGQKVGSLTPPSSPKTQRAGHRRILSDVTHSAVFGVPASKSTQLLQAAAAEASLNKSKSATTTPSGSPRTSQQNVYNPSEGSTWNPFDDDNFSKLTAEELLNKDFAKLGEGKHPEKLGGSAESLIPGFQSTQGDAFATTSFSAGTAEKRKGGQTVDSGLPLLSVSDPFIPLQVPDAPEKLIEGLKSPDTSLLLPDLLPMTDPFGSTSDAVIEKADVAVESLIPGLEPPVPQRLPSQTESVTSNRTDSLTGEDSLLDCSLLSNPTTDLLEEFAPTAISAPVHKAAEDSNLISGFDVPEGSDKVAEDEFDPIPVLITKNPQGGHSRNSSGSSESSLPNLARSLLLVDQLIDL
Description: (§1) Test Example 11: Kinase Selectivity Test
(§2) 1. Experimental Purpose: Tests for selectivity of the compounds of the present disclosure for a plurality of kinases were carried out to assess the safety risk of the compounds of the present disclosure.
(§3) 2. Test institution: ThermoFisher USA
(§4) 3. Testing methods: LanthaScreen binding, Z′-LYTE, Adapta
(§5) 4. Test targets: 100 targets in total

FLT3 = molecular target: T2, FLT3 (Homo sapiens, UniProt P36888); test: Kinase selectivity test (ThermoFisher); assay type: biochemical; design: concentration or dose not given beside the values
T2 construct: purchased ThermoFisher USA (contract testing)
T2 sequence (P36888 27-993): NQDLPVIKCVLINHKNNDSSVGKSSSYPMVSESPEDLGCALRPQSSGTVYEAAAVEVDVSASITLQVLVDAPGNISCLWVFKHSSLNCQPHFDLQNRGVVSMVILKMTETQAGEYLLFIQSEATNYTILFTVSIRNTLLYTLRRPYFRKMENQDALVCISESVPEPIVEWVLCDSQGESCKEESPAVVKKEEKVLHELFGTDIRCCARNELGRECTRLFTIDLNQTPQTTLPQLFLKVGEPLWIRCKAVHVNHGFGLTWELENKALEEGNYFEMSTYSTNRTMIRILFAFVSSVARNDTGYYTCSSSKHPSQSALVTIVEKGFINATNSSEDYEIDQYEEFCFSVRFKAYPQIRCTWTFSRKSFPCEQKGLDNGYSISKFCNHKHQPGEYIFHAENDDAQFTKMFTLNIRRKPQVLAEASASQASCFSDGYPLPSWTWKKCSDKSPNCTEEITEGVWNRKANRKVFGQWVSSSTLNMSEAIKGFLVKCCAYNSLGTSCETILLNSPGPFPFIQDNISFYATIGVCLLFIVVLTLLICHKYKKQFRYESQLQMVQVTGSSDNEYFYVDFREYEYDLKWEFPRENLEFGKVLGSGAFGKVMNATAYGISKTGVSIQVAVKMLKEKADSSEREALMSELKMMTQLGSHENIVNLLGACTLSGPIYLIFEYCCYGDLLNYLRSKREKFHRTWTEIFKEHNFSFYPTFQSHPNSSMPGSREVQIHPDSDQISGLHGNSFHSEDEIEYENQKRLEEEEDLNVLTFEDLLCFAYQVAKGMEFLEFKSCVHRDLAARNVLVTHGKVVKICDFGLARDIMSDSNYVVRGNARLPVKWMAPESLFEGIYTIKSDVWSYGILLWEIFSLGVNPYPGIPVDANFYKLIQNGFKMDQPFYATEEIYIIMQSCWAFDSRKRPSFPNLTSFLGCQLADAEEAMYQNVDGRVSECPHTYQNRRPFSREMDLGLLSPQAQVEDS
Description: as §1, §2, §3, §4, §5

GRK4 = molecular target: T3, GRK4 (Homo sapiens, UniProt P32298); test: Kinase selectivity test (ThermoFisher); assay type: biochemical; design: concentration or dose not given beside the values
T3 construct: purchased ThermoFisher USA (contract testing)
T3 sequence (P32298 whole entry): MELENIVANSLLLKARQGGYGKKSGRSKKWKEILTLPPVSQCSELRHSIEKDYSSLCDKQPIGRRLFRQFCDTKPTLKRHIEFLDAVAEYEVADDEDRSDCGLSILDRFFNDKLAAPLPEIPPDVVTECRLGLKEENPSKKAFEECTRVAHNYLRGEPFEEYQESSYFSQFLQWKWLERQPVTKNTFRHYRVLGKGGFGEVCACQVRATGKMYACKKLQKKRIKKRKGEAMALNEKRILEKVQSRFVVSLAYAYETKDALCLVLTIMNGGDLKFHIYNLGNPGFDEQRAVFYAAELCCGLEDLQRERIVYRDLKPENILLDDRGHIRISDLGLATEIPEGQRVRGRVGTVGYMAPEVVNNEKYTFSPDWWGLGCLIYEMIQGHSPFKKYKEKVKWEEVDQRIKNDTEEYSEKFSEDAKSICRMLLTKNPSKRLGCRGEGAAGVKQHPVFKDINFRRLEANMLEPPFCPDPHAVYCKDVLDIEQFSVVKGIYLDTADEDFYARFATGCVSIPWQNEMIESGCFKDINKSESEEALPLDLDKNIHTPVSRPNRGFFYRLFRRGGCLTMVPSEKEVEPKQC
Description: as §1, §2, §3, §4, §5

JAK2 = molecular target: T4, JAK2 (Homo sapiens, UniProt O60674); test: Kinase selectivity test (ThermoFisher); assay type: biochemical; design: concentration or dose not given beside the values
T4 construct: purchased ThermoFisher USA (contract testing)
T4 sequence (O60674 whole entry): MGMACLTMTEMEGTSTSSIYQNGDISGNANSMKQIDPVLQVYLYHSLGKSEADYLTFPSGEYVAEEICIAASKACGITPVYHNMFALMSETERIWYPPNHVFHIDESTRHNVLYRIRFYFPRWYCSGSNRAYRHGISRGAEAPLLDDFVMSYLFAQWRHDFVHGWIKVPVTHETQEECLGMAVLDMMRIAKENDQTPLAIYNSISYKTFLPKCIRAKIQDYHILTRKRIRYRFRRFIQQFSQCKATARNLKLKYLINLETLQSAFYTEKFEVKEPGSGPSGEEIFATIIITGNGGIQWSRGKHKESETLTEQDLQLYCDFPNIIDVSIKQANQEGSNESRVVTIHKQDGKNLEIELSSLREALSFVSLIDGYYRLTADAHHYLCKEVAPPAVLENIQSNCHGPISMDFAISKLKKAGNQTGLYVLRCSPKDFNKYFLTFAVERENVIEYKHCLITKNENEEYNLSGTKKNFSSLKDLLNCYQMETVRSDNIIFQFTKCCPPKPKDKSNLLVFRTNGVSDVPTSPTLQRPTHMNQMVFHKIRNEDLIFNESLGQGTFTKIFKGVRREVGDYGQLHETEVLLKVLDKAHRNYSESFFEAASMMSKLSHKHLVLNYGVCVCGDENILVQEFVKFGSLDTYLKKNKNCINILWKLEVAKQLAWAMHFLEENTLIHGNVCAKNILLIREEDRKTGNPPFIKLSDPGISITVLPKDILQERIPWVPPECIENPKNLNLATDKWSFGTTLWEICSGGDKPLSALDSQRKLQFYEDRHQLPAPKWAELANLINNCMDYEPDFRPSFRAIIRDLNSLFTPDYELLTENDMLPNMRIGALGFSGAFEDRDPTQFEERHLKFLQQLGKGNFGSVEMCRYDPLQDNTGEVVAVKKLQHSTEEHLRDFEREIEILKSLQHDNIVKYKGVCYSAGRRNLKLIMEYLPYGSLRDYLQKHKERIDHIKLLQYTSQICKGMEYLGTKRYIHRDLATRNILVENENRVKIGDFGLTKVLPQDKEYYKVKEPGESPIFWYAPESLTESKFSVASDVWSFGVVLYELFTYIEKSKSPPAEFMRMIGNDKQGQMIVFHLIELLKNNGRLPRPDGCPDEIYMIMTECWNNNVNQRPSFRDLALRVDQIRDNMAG
Description: as §1, §2, §3, §4, §5

KDR (VEGFR2) = molecular target: T5, KDR (VEGFR2) (Homo sapiens, UniProt P35968); test: Kinase selectivity test (ThermoFisher); assay type: biochemical; design: concentration or dose not given beside the values
T5 construct: purchased ThermoFisher USA (contract testing)
T5 sequence (P35968 20-1356): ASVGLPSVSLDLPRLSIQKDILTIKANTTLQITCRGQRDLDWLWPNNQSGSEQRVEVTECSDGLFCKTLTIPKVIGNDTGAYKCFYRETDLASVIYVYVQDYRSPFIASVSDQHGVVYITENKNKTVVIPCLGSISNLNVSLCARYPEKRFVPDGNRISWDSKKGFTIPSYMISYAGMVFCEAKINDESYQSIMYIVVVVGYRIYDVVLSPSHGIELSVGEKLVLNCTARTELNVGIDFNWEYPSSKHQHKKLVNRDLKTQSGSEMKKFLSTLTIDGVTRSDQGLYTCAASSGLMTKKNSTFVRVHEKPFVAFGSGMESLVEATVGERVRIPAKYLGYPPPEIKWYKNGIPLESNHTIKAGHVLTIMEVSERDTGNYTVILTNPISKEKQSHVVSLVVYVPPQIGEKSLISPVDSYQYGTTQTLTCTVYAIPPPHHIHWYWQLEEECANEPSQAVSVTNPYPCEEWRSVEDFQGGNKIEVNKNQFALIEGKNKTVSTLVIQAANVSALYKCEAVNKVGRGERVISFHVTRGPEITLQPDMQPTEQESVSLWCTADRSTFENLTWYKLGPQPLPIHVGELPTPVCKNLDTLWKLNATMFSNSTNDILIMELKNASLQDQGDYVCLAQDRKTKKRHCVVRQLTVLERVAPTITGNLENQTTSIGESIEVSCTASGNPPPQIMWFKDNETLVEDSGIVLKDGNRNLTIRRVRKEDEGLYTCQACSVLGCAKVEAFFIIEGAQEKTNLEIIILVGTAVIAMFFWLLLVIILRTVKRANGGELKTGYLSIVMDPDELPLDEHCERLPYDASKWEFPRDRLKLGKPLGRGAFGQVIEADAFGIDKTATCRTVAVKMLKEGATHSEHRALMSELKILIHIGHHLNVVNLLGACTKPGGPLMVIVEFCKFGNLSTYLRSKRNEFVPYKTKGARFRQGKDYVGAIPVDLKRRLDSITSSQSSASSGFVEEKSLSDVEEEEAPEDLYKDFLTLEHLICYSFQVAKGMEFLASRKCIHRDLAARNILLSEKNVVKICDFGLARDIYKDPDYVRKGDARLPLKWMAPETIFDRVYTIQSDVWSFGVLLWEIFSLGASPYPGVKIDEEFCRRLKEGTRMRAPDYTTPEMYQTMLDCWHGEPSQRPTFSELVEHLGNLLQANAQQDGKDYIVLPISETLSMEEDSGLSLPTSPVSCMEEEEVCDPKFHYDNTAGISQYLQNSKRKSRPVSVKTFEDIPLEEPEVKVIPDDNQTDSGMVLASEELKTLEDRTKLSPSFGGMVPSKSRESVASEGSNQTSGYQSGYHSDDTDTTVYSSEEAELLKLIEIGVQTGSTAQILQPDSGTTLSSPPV
Description: as §1, §2, §3, §4, §5

MET (cMet) = molecular target: T6, MET (cMet) (Homo sapiens, UniProt P08581); test: Kinase selectivity test (ThermoFisher); assay type: biochemical; design: concentration or dose not given beside the values
T6 construct: purchased ThermoFisher USA (contract testing)
Description: as §1, §2, §3, §4, §5

| Compound | TGI (%) (calculated by the tumor volume) (NCI-H358 cell xenograft; 10 mpk/QD) | Inhibition (%) Target 1 (AAK1) [%] | Inhibition (%) Target 2 (AAK1) [%] | Inhibition (%) Mean value (AAK1) [%] | Inhibition (%) Target 1 (FLT3) [%] | Inhibition (%) Target 2 (FLT3) [%] | Inhibition (%) Mean value (FLT3) [%] | Inhibition (%) Target 1 (GRK4) [%] | Inhibition (%) Target 2 (GRK4) [%] | Inhibition (%) Mean value (GRK4) [%] | Inhibition (%) Target 1 (JAK2) [%] | Inhibition (%) Target 2 (JAK2) [%] | Inhibition (%) Mean value (JAK2) [%] | Inhibition (%) Target 1 (KDR (VEGFR2)) [%] | Inhibition (%) Target 2 (KDR (VEGFR2)) [%] | Inhibition (%) Mean value (KDR (VEGFR2)) [%] | Inhibition (%) Target 1 (MET (cMet)) [%] | Inhibition (%) Target 2 (MET (cMet)) [%] | Inhibition (%) Mean value (MET (cMet)) [%] | other results |
| --- | --- | --- | --- | --- | --- | --- | --- | --- | --- | --- | --- | --- | --- | --- | --- | --- | --- | --- | --- | --- |
| C[C@@H]1OCC2(CCN(c3cnc(Sc4ccnc(N)c4Cl)c(N)n3)CC2)[C@@H]1N [TNO-155, reference compound] | 58.49 | 49 | 46 | 48 | 96 | 97 | 97 | 96 | 95 | 95 | 61 | 57 | 59 | 73 | 73 | 73 | 42 | 40 | 41 | TGI (%) (calculated by the tumor volume) (NCI-H358 cell xenograft; 5 mpk/BID): 68.59% |
| C[C@@H]1OCC2(CCN(c3ncc(Sc4ccnc(N5CC(C(C)(C)O)C5)c4Cl)nc3CO)CC2)[C@@H]1N [Example 12, 2-(1-(4-(5-((3S,4S)-4-amino-3-methyl-2-oxa-8-azaspiro[4.5]decan-8-yl)-6-(hydroxymethyl)pyrazin-2-ylthio)-3-chloropyridin-2-yl)azetidin-3-yl)propan-2-ol] | 93.14 | 3 | 0 | 1 | 11 | 8 | 9 | 9 | 7 | 8 | −7 | −2 | −4 | 3 | 4 | 3 | −1 | 16 | 7 | TGI (%) (calculated by the tumor volume) (NCI-H358 cell xenograft; 3 mpk/QD): 84.35%; tumor inhibitory effect (in words) (NCI-H358 cell xenograft; oral administration for 21 consecutive days): remarkable tumor inhibitory effect |
